Type in all cases: cell-based
Common to all, as to details: Cardiac atrium

Experiment [1] has as its system Pelophylax lessonae. Description: Activity at L-type calcium channel in frog atrial myocytes assessed as increase in Sr2+ current.
Experiment [2] has as its system Pelophylax lessonae. Description: Inhibition of PP2A in frog atrial myocytes by microscystin assay.
The test system of experiment [3] is Pelophylax lessonae. Description: Inhibition of NOS2 in frog atrial myocytes.
Experiment [4] concerns Pelophylax lessonae. Kind of experiment: Decrease in cellular cGMP level in frog atrial myocytes at 4 uM by immunoassay. Further details: scale not given: the % may be the effect or the level left.

Activity calls are given as the source filed them. The rule behind the calls is not given here.

`Cc1cc(O)c2c(=O)c3c(O)cc(O)c4c5c(O)cc(O)c6c(=O)c7c(O)cc(C)c8c1c2c(c34)c(c78)c65`: the Activity result is “Dose-dependent effect” in experiment [1] and 69% in experiment [4]. For the same compound, the result in experiment [2] and in experiment [3] was inactive.

These data come from ChEMBL document CHEMBL1142100, “Hypericin activates L-type Ca2+ channels in cardiac myocytes” (J Nat Prod, 2007).
